Test results: the CombiSolv-Exp solvation set (Vermeire and Green 2021)
Each block holds one compound with its values, some of them ahead of it.

Test: solvent given as SMILES

SMILES: CC(C)CO
solvation free energy, 298 K (in Brc1ccccc1): -4.23 kcal/mol | solvation free energy, 298 K (in C1CCCCC1): -3.98 kcal/mol | solvation free energy, 298 K (in CC(=O)N(C)C): -6.04 kcal/mol | solvation free energy, 298 K (in CC(C)(C)O): -5.95 kcal/mol | solvation free energy, 298 K (in CC(C)CC(C)(C)C): -3.55 kcal/mol | solvation free energy, 298 K (in CC(C)CCCC(C)CCCC(C)CCCCC(C)CCCC(C)CCCC(C)C): -3.1 kcal/mol | solvation free energy, 298 K (in CCC(C)=O): -5.43 kcal/mol | solvation free energy, 298 K (in CCC(C)O): -5.95 kcal/mol | solvation free energy, 298 K (in CCCCCC): -3.58 kcal/mol | solvation free energy, 298 K (in CCCCCCC): -3.51 kcal/mol | solvation free energy, 298 K (in CCCCCCCC): -3.33 kcal/mol | solvation free energy, 298 K (in CCCCCCCCCCCCCCCC): -3.25 kcal/mol | solvation free energy, 298 K (in CCCCCCCCCCO): -5.43 kcal/mol | solvation free energy, 298 K (in CCCCCCCCO): -5.36 kcal/mol | solvation free energy, 298 K (in CCCCCO): -5.73 kcal/mol | solvation free energy, 298 K (in CCCCCl): -4.41 kcal/mol | solvation free energy, 298 K (in CCCCN(C=O)CCCC): -5.76 kcal/mol | solvation free energy, 298 K (in CCCCO): -5.74 kcal/mol | solvation free energy, 298 K (in CCCCOC(C)=O): -4.84 kcal/mol | solvation free energy, 298 K (in CCCOCCC): -4.78 kcal/mol | solvation free energy, 298 K (in CCOC(=O)c1ccccc1C(=O)OCC): -4.88 kcal/mol | solvation free energy, 298 K (in CCOP(=O)(OCC)OCC): -5.79 kcal/mol | solvation free energy, 298 K (in CN1CCCC1=O): -6.03 kcal/mol | solvation free energy, 298 K (in CN1CCN(C)C1=O): -5.9 kcal/mol | solvation free energy, 298 K (in CNC(C)=O): -5.91 kcal/mol | solvation free energy, 298 K (in CO): -6.18 kcal/mol | solvation free energy, 298 K (in Cc1ccc(C)cc1): -4.25 kcal/mol | solvation free energy, 298 K (in Cc1cccc(C)c1): -4.1 kcal/mol | solvation free energy, 298 K (in Clc1ccccc1): -4.26 kcal/mol | solvation free energy, 298 K (in O): -4.52 kcal/mol | solvation free energy, 298 K (in O=CN1CCOCC1): -5.3 kcal/mol | solvation free energy, 298 K (in OCCOCCO): -5.51 kcal/mol | solvation free energy, 298 K (in [2H]O[2H]): -4.59 kcal/mol

solvation free energy, 298 K (in O): -11.2 kcal/mol
SMILES: Cc1ccccc1C(=O)N(O)c1ccccc1C

SMILES: O=[N+]([O-])c1ccc(O)c([N+](=O)[O-])c1
solvation free energy, 298 K (in CCCCCC): -8.09 kcal/mol | solvation free energy, 298 K (in CCCCCCC): -8.08 kcal/mol | solvation free energy, 298 K (in CCCCCCCC): -8.05 kcal/mol | solvation free energy, 298 K (in O): -7.61 kcal/mol

solvation free energy, 298 K (in O): -9.8 kcal/mol
SMILES: CC(=O)N1CCCC1

solvation free energy, 298 K (in O): -9.3 kcal/mol
SMILES: OCCO

SMILES: O=S1OCC2C(CO1)C1(Cl)C(Cl)=C(Cl)C2(Cl)C1(Cl)Cl (stereo not drawn)
solvation free energy, 298 K (in CCCCCCCCO): -13 kcal/mol

SMILES: Nc1ccc([N+](=O)[O-])cc1Cl
solvation free energy, 298 K (in O): -8.74 kcal/mol

SMILES: O=[N+]([O-])c1cc(Cl)ccc1Cl
solvation free energy, 298 K (in C1CCCCC1): -8.11 kcal/mol | solvation free energy, 298 K (in CC1CCCCC1): -8.06 kcal/mol | solvation free energy, 298 K (in CC#N): -9.34 kcal/mol | solvation free energy, 298 K (in CC(C)CC(C)(C)C): -7.63 kcal/mol | solvation free energy, 298 K (in CC(C)CCO): -8.13 kcal/mol | solvation free energy, 298 K (in CC(C)CO): -8.01 kcal/mol | solvation free energy, 298 K (in CC(C)O): -8.07 kcal/mol | solvation free energy, 298 K (in CCC(C)O): -7.92 kcal/mol | solvation free energy, 298 K (in CCCCCC): -7.77 kcal/mol | solvation free energy, 298 K (in CCCCCCC): -7.77 kcal/mol | solvation free energy, 298 K (in CCCCCCCC): -7.75 kcal/mol | solvation free energy, 298 K (in CCCCCCCCCC): -7.74 kcal/mol | solvation free energy, 298 K (in CCCCCCCCCCCC): -7.71 kcal/mol | solvation free energy, 298 K (in CCCCCCCCCO): -8.13 kcal/mol | solvation free energy, 298 K (in CCCCCCCCO): -8.18 kcal/mol | solvation free energy, 298 K (in CCCCCCCO): -8.19 kcal/mol | solvation free energy, 298 K (in CCCCCCO): -8.22 kcal/mol | solvation free energy, 298 K (in CCCCCO): -8.23 kcal/mol | solvation free energy, 298 K (in CCCCO): -8.23 kcal/mol | solvation free energy, 298 K (in CCCO): -8.23 kcal/mol | solvation free energy, 298 K (in CCO): -8.32 kcal/mol | solvation free energy, 298 K (in COC(C)=O): -9.35 kcal/mol | solvation free energy, 298 K (in Cc1cccc(C)c1): -9.25 kcal/mol | solvation free energy, 298 K (in Cc1ccccc1): -9.28 kcal/mol

SMILES: CC(C(=O)O)c1ccc(-c2ccccc2)c(F)c1 (stereo not drawn)
solvation free energy, 298 K (in C1COCCO1): -16.2 kcal/mol | solvation free energy, 298 K (in CC(C)=O): -16.1 kcal/mol | solvation free energy, 298 K (in CCCCCCCO): -15.6 kcal/mol | solvation free energy, 298 K (in CCCCCCO): -15.6 kcal/mol | solvation free energy, 298 K (in CCCCCO): -15.7 kcal/mol | solvation free energy, 298 K (in CCCCO): -15.7 kcal/mol | solvation free energy, 298 K (in CCCO): -15.8 kcal/mol | solvation free energy, 298 K (in CCO): -15.9 kcal/mol | solvation free energy, 298 K (in CCOC(C)=O): -15.9 kcal/mol | solvation free energy, 298 K (in CO): -15.9 kcal/mol | solvation free energy, 298 K (in O): -8.42 kcal/mol

solvation free energy, 298 K (in O): -0.83 kcal/mol
SMILES: Cc1ccc(C)c(C)c1

SMILES: CCN(N=O)C(C)C
solvation free energy, 298 K (in O): -5.46 kcal/mol

solvation free energy, 298 K (in O): -0.88 kcal/mol
SMILES: CCCCS

SMILES: OC1CCCC1
solvation free energy, 298 K (in C1COCCO1): -6.33 kcal/mol | solvation free energy, 298 K (in CC(C)=O): -6.28 kcal/mol | solvation free energy, 298 K (in O): -5.5 kcal/mol

solvation free energy, 298 K (in O): -9.96 kcal/mol
SMILES: OCCCO

SMILES: CNC=O
solvation free energy, 298 K (in C1CCCCC1): -3.86 kcal/mol | solvation free energy, 298 K (in CC(C)=O): -7.35 kcal/mol | solvation free energy, 298 K (in CCCCCCC): -3.68 kcal/mol | solvation free energy, 298 K (in O): -8.87 kcal/mol
